Source: US8071584B2 (GlaxoSmithKline LLC, priority 2007, dated 2011)

Test system: human monocyte stimulated cytokine production (TNF-α)
Assay: Monocyte assay (LPS-stimulated TNF-α production)
Format: cell-based
Conditions: for IC50: human CD14+ monocytes, 200 ng/mL LPS, 24 hrs, values given as 'about', read-out: pIC50 in the monocyte assay (converted); for inhibition at 0.3 µM: 300 nM, human monocytes, LPS
Experimental: Effect of IKK-β inhibition on human monocyte stimulated cytokine production was assessed as follows: Monocytes were isolated from heparinized whole blood by Ficoll gradient, followed by purification of CD14+ cells using MACS magnetic cell separation beads. Isolated monocytes were then adhered to 96-well culture plates at 1×10^6 cells/mL in RPMI 1640 10% FBS (JRH Biosciences, Lenexa Kans.) for 2 h. Test compounds are added to the wells 30 minutes prior to stimulation with a final vehicle concentration of 0.1% DMSO. Monocytes were activated by the addition of 200 ng/mL endotoxin (LPS; E. coli serotype 026:B6) (Sigma, St. Louis, Mo.) and incubated for 24 hrs at 37 C. Cell-free supernates were analyzed by Alphascreen™ (Perkin Elmer, Waltham, Mass.) for TNF-α using R&D Systems matched pair Abs. Viability of the cells was determined by 10% trypan blue exclusion.

| SMILES | IC50 [nM] | inhibition at 0.3 µM [%] |
| --- | --- | --- |
| NC(=O)c1cc(-c2ccccc2)cc2c(CC3CCS(=O)(=O)C3)c[nH]c12 (stereo not shown) [Example 259, 3-[(1,1-Dioxidotetrahydro-3-thienyl)methyl]-5-phenyl-1H-indole-7-carboxamide] | 5.01 to 1000 |  |
| NC(=O)c1cc(-c2csc(CN3CCCC3)c2)cc2c(C3CC4CCC(C3)S4(=O)=O)c[nH]c12 (stereo not drawn) [Example 205, 3-[(3-endo)-8,8-Dioxido-8-thiabicyclo[3.2.1]oct-3-yl]-5-[5-(1-pyrrolidinylmethyl)-3-thienyl]-1H-indole-7-carboxamide] | 5.01 to 1000 |  |
| NC(=O)c1cc(-c2ccnc(Cl)c2)cc2c(C3CCS(=O)(=O)CC3)c[nH]c12 [Example 68, 5-(2-Chloro-4-pyridinyl)-3-(1,1-dioxidotetrahydro-2H-thiopyran-4-yl)-1H-indole-7-carboxamide] | 5.01 to 1000 |  |
| NC(=O)c1cc(-c2csc(CN3CCC3)c2)cc2c(C3CCS(=O)(=O)C3)c[nH]c12 (stereo not shown) [Example 185, 5-[5-(1-Azetidinylmethyl)-3-thienyl]-3-(1,1-dioxidotetrahydro-3-thienyl)-1H-indole-7-carboxamide] | 5.01 to 1000 |  |
| NC(=O)c1cc(-c2ccc(F)cc2)cc2c(C3CCCS(=O)(=O)C3)c[nH]c12 (stereo not shown) [Example 220, 3-(1,1-Dioxidotetrahydro-2H-thiopyran-3-yl)-5-(4-fluorophenyl)-1H-indole-7-carboxamide] |  | 0 to 100 |
| NC(=O)c1c(F)c(-c2ccccc2)cc2c(C3CCS(=O)(=O)CC3)c[nH]c12 [Example 168, 3-(1,1-Dioxidotetrahydro-2H-thiopyran-4-yl)-6-fluoro-5-phenyl-1H-indole-7-carboxamide] | 5.01 to 1000 |  |
| NC(=O)c1cc(-c2ccsc2)cc2c([C@@H]3CCS(=O)(=O)[C@H](c4ccccc4)C3)c[nH]c12 [Example 247, 3-[(2S,4R)1,1-dioxido-2-phenyltetrahydro-2H-thiopyran-4-yl]-5-(3-thienyl)-1H-indole-7-carboxamide] | 5.01 to 1000 |  |
| NC(=O)c1cc(-c2ccc3c(c2)CCO3)cc2c(C3CCS(=O)(=O)CC3)c[nH]c12 [Example 69, 5-(2,3-Dihydro-1-benzofuran-5-yl)-3-(1,1-dioxidotetrahydro-2H-thiopyran-4-yl)-1H-indole-7-carboxamide] | 5.01 to 1000 |  |
| NC(=O)c1cc(-c2ccccc2)cc2c([C@H]3CCS(=O)(=O)[C@@H](c4ccccc4)C3)c[nH]c12 (racemic) [Example 252, 3-(1,1-Dioxido-2-phenyltetrahydro-2H-thiopyran-4-yl)-5-phenyl-1H-indole-7-carboxamide] | 5.01 to 1000 |  |
| CC1(C)CC(c2c[nH]c3c(C(N)=O)cc(-c4ccc(S(=O)(=O)N5CCCC5)s4)cc23)CCS1(=O)=O (stereo not shown) [Example 239, 3-(2,2-Dimethyl-1,1-dioxidotetrahydro-2H-thiopyran-4-yl)-5-[5-(1-pyrrolidinylsulfonyl)-2-thienyl]-1H-indole-7-carboxamide] | 5.01 to 1000 |  |
| NC(=O)c1cc(-c2ccsc2)cc2c([C@H]3CCS(=O)(=O)[C@@H](c4ccccc4)C3)c[nH]c12 [Example 248, 3-[(2R,4S)1,1-dioxido-2-phenyltetrahydro-2H-thiopyran-4-yl]-5-(3-thienyl)-1H-indole-7-carboxamide] | > 1000 |  |
| NC(=O)c1cc(-c2cccs2)cc2c([C@H]3CCS(=O)(=O)[C@@H](c4ccccc4)C3)c[nH]c12 (racemic) [Example 249, 3-(1,1-Dioxido-2-cis-phenyltetrahydro-2H-thiopyran-4-yl)-5-(2-thienyl)-1H-indole-7-carboxamide] | 5.01 to 1000 |  |
| NC(=O)c1cc(-c2ccoc2)cc2c(C3CCS(=O)(=O)C3)c[nH]c12 (stereo not shown) [Example 189, 3-(1,1-Dioxidotetrahydro-3-thienyl)-5-(3-furanyl)-1H-indole-7-carboxamide] | > 1000 |  |
| CC1(C)CC(c2c[nH]c3c(C(N)=O)cc(-c4ccoc4)cc23)CCS1(=O)=O (stereo not shown) [Example 228, 3-(2,2-Dimethyl-1,1-dioxidotetrahydro-2H-thiopyran-4-yl)-5-(3-furanyl)-1H-indole-7-carboxamide] | 5.01 to 1000 |  |
| CN(C)c1ccc(-c2cc(C(N)=O)c3[nH]cc(C4CCS(=O)(=O)CC4)c3c2)cn1 [Example 67, 5-[6-(Dimethylamino)-3-pyridinyl]-3-(1,1-dioxidotetrahydro-2H-thiopyran-4-yl)-1H-indole-7-carboxamide] | 5.01 to 1000 |  |
| NC(=O)c1cc(-c2ccccc2)cc2c(C3CCCS(=O)(=O)CC3)c[nH]c12 (stereo not shown) [Example 212, 3-(1,1-Dioxido-4-thiepanyl)-5-phenyl-1H-indole-7-carboxamide] | 5.01 to 1000 |  |
| COC(=O)c1cc(-c2ccc(F)cc2)cc2c([C@@H]3CCSC3)c[nH]c12 [Example 172, Methyl 5-(4-fluorophenyl)-3-[(3S)-tetrahydro-3-thienyl]-1H-indole-7-carboxylate] | 5.01 to 1000 |  |
| CC(C)[C@H]1C[C@H](c2c[nH]c3c(C(N)=O)cc(-c4cccs4)cc23)CCS1(=O)=O (racemic) [Example 245, (racemic)-3-[trans-2-(1-Methylethyl)-1,1-dioxidotetrahydro-2H-thiopyran-4-yl]-5-(2-thienyl)-1H-indole-7-carboxamide] | 5.01 to 1000 |  |
| CC(C)[C@H]1C[C@H](c2c[nH]c3c(C(N)=O)cc(-c4ccsc4)cc23)CCS1(=O)=O (racemic) [Example 241, (racemic)-3-[trans-2-(1-Methylethyl)-1,1-dioxidotetrahydro-2H-thiopyran-4-yl]-5-(3-thienyl)-1H-indole-7-carboxamide] | 5.01 to 1000 |  |
| NC(=O)c1cc(-c2ccc(S(=O)(=O)N3CCC3)s2)cc2c(C3CCS(=O)(=O)CC3)c[nH]c12 [Example 81, 5-[5-(1-Azetidinylsulfonyl)-2-thienyl]-3-(1,1-dioxidotetrahydro-2H-thiopyran-4-yl)-1H-indole-7-carboxamide] | 5.01 to 1000 |  |
| NC(=O)c1cc(-c2ccccc2)cc2c(C3CCCS(=O)(=O)C3)c[nH]c12 (stereo not shown) [Example 221, 3-(1,1-Dioxidotetrahydro-2H-thiopyran-3-yl)-5-phenyl-1H-indole-7-carboxamide] |  | 0 to 100 |
| NC(=O)c1cc(-c2ccc3sccc3c2)cc2c(C3CCS(=O)(=O)C3)c[nH]c12 (stereo not shown) [Example 191, 5-(1-Benzothien-5-yl)-3-(1,1-dioxidotetrahydro-3-thienyl)-1H-indole-7-carboxamide] | 5.01 to 1000 |  |
| NC(=O)c1cc(-c2csc(CN3CCCCCC3)c2)cc2c(C3CC4CCC(C3)S4(=O)=O)c[nH]c12 (stereo not drawn) [Example 208, 3-[(3-exo)-8,8-Dioxido-8-thiabicyclo[3.2.1]oct-3-yl]-5-[5-(hexahydro-1H-azepin-1-ylmethyl)-3-thienyl]-1H-indole-7-carboxamide] |  | 0 to 100 |
| CC1(C)CC(c2c[nH]c3c(C(N)=O)cc(-c4csc(CN5CCC5)c4)cc23)CCS1(=O)=O (stereo not shown) [Example 234, 5-[5-(1-Azetidinylmethyl)-3-thienyl]-3-(2,2-dimethyl-1,1-dioxidotetrahydro-2H-thiopyran-4-yl)-1H-indole-7-carboxamide] | 5.01 to 1000 |  |
| NC(=O)c1cc(-c2csc(CN3CCCCCC3)c2)cc2c(CC3CCS(=O)(=O)CC3)c[nH]c12 [Example 258, 3-[(1,1-dioxidotetrahydro-2H-thiopyran-4-yl)methyl]-5-[5-(hexahydro-1H-azepin-1-ylmethyl)-3-thienyl]-1H-indole-7-carboxamide] | 5.01 to 1000 |  |
